Results as given in the NIST ThermoML archive (doi:10.1021/acs.jced.6b00470).

Legend:
[1] = Liquid; for mass density / viscosity: 101.33 kPa; for mass density: Vibrating tube method; for viscosity: Vibrating wire viscometry; for vapor or sublimation pressure: Ebulliometric method (Recirculating still)
[2] = refractive index (other wavelength) (dimensionless); details: 100 kPa, Liquid, Standard Abbe refractometry

COC(=O)c1ccc(C(C)(C)C)cc1 [methyl 4-tert-butylbenzoate]
[1]
Details	mass density [kg/m3]	vapor or sublimation pressure [kPa]	viscosity [mPa·s]
293.15 K	1008.55	–	6.867
298.15 K	1004.06	–	5.867
303.15 K	999.54	–	5.013
308.15 K	994.01	–	4.291
313.15 K	989.09	–	3.687
318.15 K	983.89	–	3.188
323.15 K	979.29	–	2.781
328.15 K	974.01	–	2.451
333.15 K	969.29	–	2.185
338.15 K	964.47	–	1.969
343.15 K	959.5	–	1.79
348.15 K	954.38	–	1.634
353.15 K	948.71	–	1.487
398.3 K	–	1.21	–
408.4 K	–	1.89	–
411.3 K	–	2.13	–
421.3 K	–	3.19	–
430.4 K	–	4.51	–
434.9 K	–	5.32	–
440.6 K	–	6.53	–
446.1 K	–	7.93	–
448.2 K	–	8.53	–
452.4 K	–	9.87	–
454.3 K	–	10.53	–
457.2 K	–	11.6	–
459.7 K	–	12.61	–
462.6 K	–	13.87	–
464.3 K	–	14.67	–
466.3 K	–	15.67	–
467.2 K	–	16.13	–
470.7 K	–	18	–
473.6 K	–	19.73	–
475.1 K	–	20.67	–
477.9 K	–	22.53	–
480.1 K	–	24.13	–
482.4 K	–	25.87	–
483.3 K	–	26.53	–
484.9 K	–	27.88	–
486.4 K	–	29.13	–
487.9 K	–	30.4	–
489.5 K	–	31.86	–
490.6 K	–	32.93	–
492.4 K	–	34.66	–

refractive index, [2]
Details	Wavelength=404.7 nm	Wavelength=435.8 nm	Wavelength=486.1 nm	Wavelength=546.1 nm	Wavelength=587.6 nm	Wavelength=589.3 nm	Wavelength=632.8 nm	Wavelength=644 nm	Wavelength=706.5 nm
293.15 K	1.53993	1.53137	1.52182	1.51423	1.51053	1.51039	1.50735	1.50663	1.50334
298.15 K	1.53745	1.52893	1.51944	1.51188	1.5082	1.50807	1.50504	1.50433	1.50105
303.15 K	1.5352	1.52672	1.51725	1.50975	1.50608	1.50595	1.50293	1.50222	1.49897
308.15 K	1.53292	1.52448	1.51505	–	–	–	–	–	–
